Test systems include KM12; T47D; NCI/ADR-RES; NCI-H460; CCRF-CEM; A549; IGROV-1; UACC-257; K562; HCT-15; MDA-N; COLO 205; MCF7; A498; HOP-92; HOP-62; NCI-H23; SF-268; TK-10; UACC-62.
Assay in all cases: growth of human tumour cells (NCI), 48 h

The results in this text go back to ChEMBL document CHEMBL1201862, “PubChem BioAssay data set” (2004).

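Grown in 96-well plates, cells were treated for 48 hours with each compound at five concentrations. Insufficient inhibition: endpoint recorded as highest concentration tested. GI50 = concentration required for 50% inhibition of growth.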 The source made the active and inactive calls. Cut-off read from the data, not from the text of the source: active = GI50 up to about 1.1 µM and inactive = higher.

Turning to `CN(CCNC(=O)c1c[nH]c2c1ccc1ccccc12)CCNC(=O)c1c[nH]c2c1ccc1ccccc12`, the GI50 with KM12 was 1.66 µM (inactive); in the assay with T47D it was 1.14 µM (inactive); in the assay on NCI/ADR-RES, 4.81 µM (inactive); in the assay on NCI-H460, 1.96 µM (inactive); in the assay with CCRF-CEM, 1.73 µM (inactive); in the assay on A549 it was 2.2 µM (inactive). The GI50 in the assay on IGROV-1 is 1.41 µM (inactive); with UACC-257, 1.79 µM (inactive); in the assay on K562, 2.18 µM (inactive); in the assay on HCT-15, 1.92 µM; in the assay on MDA-N, 2.31 µM (inactive); in the assay with COLO 205, 1.61 µM (inactive). Moreover, the GI50 in the assay on MCF7 was 1.43 µM (inactive); with A498 it was 1.53 µM (inactive); in the assay with HOP-92 it was 1.75 µM (inactive); in the assay with HOP-62, 2.36 µM (inactive); in the assay on NCI-H23 it was 4.39 µM (inactive); in the assay on SF-268, 3.1 µM (inactive). Also, the GI50 in the assay on TK-10 was 3.21 µM (inactive); with UACC-62 it was 1.75 µM (inactive).
For the compound `NC(=S)N/N=C(/C(=O)Nc1nc2ccc([N+](=O)[O-])cc2s1)C1C(=O)NC(=S)NC1=O`, the GI50 in the assay on KM12 was > 100 µM (inactive); in the assay with T47D, 47.4 µM (inactive); with NCI/ADR-RES, > 100 µM (inactive); in the assay with NCI-H460 it was 56.1 µM (inactive); in the assay on CCRF-CEM, > 100 µM (inactive); in the assay on A549 it was > 100 µM (inactive). Also, the GI50 in the assay on UACC-257 is > 100 µM (inactive); in the assay with K562, > 100 µM (inactive); in the assay on HCT-15 it was 42.7 µM; with MDA-N it was > 100 µM (inactive); in the assay with COLO 205, > 100 µM (inactive); with MCF7, > 100 µM (inactive). Moreover, the GI50 in the assay on A498 was 72.3 µM (inactive); in the assay on HOP-92, 77.6 µM (inactive); in the assay on NCI-H23 it was > 100 µM (inactive); with SF-268, 88.9 µM (inactive); in the assay on UACC-62, > 100 µM (inactive).
`C=CC1(C)CCC2C(=CCC3C2(C)CC(O)C(O)C3(C)COC2OC(CO)C(O)C(O)C2O)C1` (stereo not given): the GI50 with KM12 was > 100 µM (inactive); in the assay on T47D, > 100 µM (inactive); in the assay with NCI/ADR-RES, > 100 µM (inactive); with NCI-H460 it was 87.9 µM (inactive); in the assay on CCRF-CEM, 46.1 µM (inactive); in the assay with A549, > 100 µM (inactive). The GI50 in the assay on IGROV-1 was > 100 µM (inactive); in the assay on UACC-257 it was > 100 µM (inactive); in the assay on K562, > 100 µM (inactive); in the assay on HCT-15, more than 100 µM; in the assay with MDA-N, > 100 µM (inactive); in the assay with COLO 205, > 100 µM (inactive). Also, the GI50 in the assay with MCF7, with A498, with HOP-92, with NCI-H23, in the assay on SF-268 and in the assay with TK-10 was > 100 µM (inactive) each time. For the same compound, in the assay with UACC-62, the GI50 was > 100 µM (inactive).
With `Cc1cc(C#N)c(Nc2ccccc2[N+](=O)[O-])s1`, the GI50 was 36.1 µM (inactive) in the assay with KM12; 36.6 µM (inactive) in the assay with T47D; 17.4 µM (inactive) with NCI/ADR-RES; 36.6 µM (inactive) in the assay with NCI-H460; 39.3 µM (inactive) in the assay with CCRF-CEM; 85.3 µM (inactive) in the assay on A549. Also, the GI50 in the assay with IGROV-1 is 13.8 µM (inactive); in the assay with UACC-257, 68.5 µM (inactive); in the assay with K562 it was 45.2 µM (inactive); in the assay with HCT-15, 28.8 µM; with MDA-N, 14.9 µM (inactive); in the assay on COLO 205, 29.6 µM (inactive). Also, the GI50 in the assay with MCF7 was 32.5 µM (inactive); in the assay on A498, 37.7 µM (inactive); in the assay with HOP-92, 57.9 µM (inactive); in the assay on HOP-62, 24.3 µM (inactive); in the assay with NCI-H23, 26.1 µM (inactive); in the assay on SF-268, 51.5 µM (inactive). In addition, the GI50 with UACC-62 was 54.2 µM (inactive).
For `NS(=O)(=O)c1nnc(NC(=O)Nc2ccc(Cl)c(Cl)c2)s1`, the GI50 with KM12 was 26.9 µM (inactive); in the assay with T47D it was 19.9 µM (inactive); in the assay with NCI/ADR-RES it was 21 µM (inactive); in the assay on NCI-H460, 19.1 µM (inactive); in the assay on CCRF-CEM, 14.3 µM (inactive); in the assay on A549 it was 31 µM (inactive). The GI50 in the assay with UACC-257 was 16.5 µM (inactive); in the assay on K562 it was 31.3 µM (inactive); in the assay on HCT-15, 21.2 µM; in the assay on MDA-N, 20.5 µM (inactive); in the assay on COLO 205 it was 13.9 µM (inactive); in the assay on MCF7 it was 26.9 µM (inactive). In addition, the GI50 with A498 was 22 µM (inactive); in the assay on HOP-92 it was 16.3 µM (inactive); with HOP-62, 17.8 µM (inactive); in the assay with NCI-H23, 18 µM (inactive); with SF-268 it was 24.7 µM (inactive); in the assay with TK-10 it was 20.6 µM (inactive). Also, the GI50 in the assay with UACC-62 is 16.2 µM (inactive).
As to `CC1=C(C)C(=O)C(C2=CC(=O)C=CC2=O)=C(C2=CC(=O)C=CC2=O)C1=O`, the GI50 in the assay with KM12 was 64.4 µM (inactive); in the assay with T47D, 26.4 µM (inactive); with NCI/ADR-RES, > 100 µM (inactive); with NCI-H460, > 100 µM (inactive); in the assay with CCRF-CEM, 14.1 µM (inactive); in the assay on A549 it was 98.9 µM (inactive). Moreover, the GI50 with IGROV-1 is 21.4 µM (inactive); with UACC-257, > 67.1 µM (inactive); with HCT-15, 41 µM; with MDA-N, 26.9 µM (inactive); in the assay on COLO 205 it was 56 µM (inactive); in the assay with MCF7 it was 26.4 µM (inactive). Besides, the GI50 with A498 is > 100 µM (inactive); in the assay on HOP-92, 36.4 µM (inactive); in the assay with HOP-62, > 100 µM (inactive); with NCI-H23, > 100 µM (inactive); in the assay on SF-268, > 74.6 µM (inactive); in the assay on TK-10, > 100 µM (inactive). For the same compound, the GI50 in the assay with UACC-62 is 39.6 µM (inactive).
As for `C=C(C)[C@H]1C[C@@H]2O[C@@](O)(/C(C)=C\C(=O)/C=C(/C)C[C@H]3OC(=O)[C@@]24O[C@H]34)[C@@H]1O`, the GI50 with KM12, with T47D, with NCI/ADR-RES, in the assay on NCI-H460, in the assay on CCRF-CEM and with A549 was > 100 µM (inactive) in each case. Further, the GI50 with IGROV-1 is > 100 µM (inactive); in the assay with UACC-257 it was > 100 µM (inactive); with K562 it was > 100 µM (inactive); with HCT-15, more than 100 µM; with MDA-N, > 100 µM (inactive); in the assay on COLO 205, > 100 µM (inactive). Moreover, the GI50 in the assay with MCF7, in the assay on A498, with HOP-92, with SF-268, in the assay on TK-10 and in the assay on UACC-62 was > 100 µM (inactive) in each case.
On to `CCN(CC)CCNC(=O)c1ccc(I)cc1`, for which the GI50 in the assay with KM12 is > 100 µM (inactive); in the assay on T47D it was 64.4 µM (inactive); in the assay on NCI/ADR-RES it was > 100 µM (inactive); with NCI-H460, > 100 µM (inactive); in the assay on CCRF-CEM, 89.5 µM (inactive); with A549, > 100 µM (inactive). For the same compound, the GI50 was > 100 µM (inactive) in the assay on IGROV-1; > 100 µM (inactive) with UACC-257; > 100 µM (inactive) with K562; more than 100 µM with HCT-15; > 100 µM (inactive) with MDA-N; > 100 µM (inactive) in the assay on COLO 205. Besides, the GI50 in the assay with MCF7 was > 100 µM (inactive); in the assay on A498, 44.3 µM (inactive); in the assay on HOP-92, > 100 µM (inactive); with HOP-62, > 100 µM (inactive); with NCI-H23, > 100 µM (inactive); with SF-268, > 100 µM (inactive). Further, the GI50 with TK-10 is > 100 µM (inactive).
For the compound `C=CCc1cccc2cc(C(=O)NC3CCCCC3)c(=N)oc12`, the GI50 with KM12 was 16.9 µM (inactive); in the assay with T47D, 11.4 µM (inactive); in the assay on NCI/ADR-RES, 27.4 µM (inactive); with NCI-H460, 16.1 µM (inactive); in the assay with CCRF-CEM it was 17.5 µM (inactive); in the assay on A549 it was 32.2 µM (inactive). Further, the GI50 with IGROV-1 was > 100 µM (inactive); in the assay on UACC-257, 25.1 µM (inactive); in the assay on K562, > 100 µM (inactive); in the assay with HCT-15, 14.1 µM; with MDA-N it was 19.1 µM (inactive); with COLO 205, 16.7 µM (inactive). Besides, the GI50 in the assay with MCF7 was 26.2 µM (inactive); in the assay on A498, 16.7 µM (inactive); in the assay with HOP-92, 35 µM (inactive); with HOP-62, 18.9 µM (inactive); in the assay on NCI-H23, 19.9 µM (inactive); in the assay on SF-268, 17.7 µM (inactive). Also, the GI50 with UACC-62 is 16.3 µM (inactive).
For the compound `COc1ccc(/C=C2/C(C)=NN(c3cccc(Cl)c3)/C2=N/c2nc3ccccc3s2)cc1`, the GI50 is 30.4 µM (inactive) in the assay with KM12; 34 µM (inactive) in the assay on T47D; 22.9 µM (inactive) in the assay with NCI/ADR-RES; 20.4 µM (inactive) in the assay with NCI-H460; 25.3 µM (inactive) in the assay on CCRF-CEM; 20.7 µM (inactive) in the assay with IGROV-1. The GI50 in the assay with UACC-257 is 22.6 µM (inactive); in the assay on K562, 26.7 µM (inactive); in the assay on HCT-15, 17.5 µM; with MDA-N it was 21.7 µM (inactive); with MCF7 it was 28.8 µM (inactive); in the assay on A498, 23.1 µM (inactive). Besides, the GI50 was 20.9 µM (inactive) in the assay on HOP-92; 20 µM (inactive) with HOP-62; 16.9 µM (inactive) in the assay on NCI-H23; 25.6 µM (inactive) in the assay on SF-268; 29 µM (inactive) in the assay on TK-10.
For the compound `CN(C)/C=[N+]1/[C@@H](Cc2ccccc2)C(=O)O[B-]1(F)c1ccccc1` (stereo not given in full), the GI50 in the assay on T47D, in the assay on NCI/ADR-RES, in the assay with NCI-H460, in the assay with CCRF-CEM, in the assay with A549 and in the assay with IGROV-1 was > 100 µM (inactive) throughout. The GI50 in the assay with UACC-257 was > 100 µM (inactive); in the assay with K562, > 100 µM (inactive); with HCT-15, more than 100 µM; in the assay with MDA-N it was > 100 µM (inactive); in the assay on COLO 205, > 100 µM (inactive); in the assay on MCF7, > 100 µM (inactive). Further, the GI50 in the assay with A498, in the assay with HOP-92, in the assay with HOP-62, in the assay on NCI-H23, in the assay on SF-268 and with TK-10 was > 100 µM (inactive) in each case. Further, the GI50 in the assay with UACC-62 is > 100 µM (inactive).
